Data taken from patent US20110293653A1, “ANTAGONISTS OF MIR-155 FOR THE TREATMENT OF INFLAMMATORY LIVER DISEASE” (UNIVERSITY OF MASSACHUSETTS, priority 2010, published 2011).
“Also recorded” adds a separate entry of the source. Where a SMILES comes first, the peptide text is derived from it. The star is where a group is joined. Cbz = O=C(OCc1ccccc1)*

System: miR155
Assay: miR155 expression (qPCR) in RAW cells after ethanol and/or LPS stimulation with NF-κB inhibitor
Type: cell-based
Details: RAW cells pretreated 48 h with ethanol (50 mM) and MG-132 (0.25 μM) or Bay 11-7082 (0.1 uM), LPS 100 ng/mL 2 h
Method: FIG. 8. […] RAW cells were exposed or not to ethanol (50 mM) and MG-132 (0.25 μM) for 48 hours and were further stimulated with LPS (100 ng/mL) for 2 hours. Expression of miR155 was assayed by qPCR and data were normalized to sno202 control. The fold increase in the expression of miR155 versus nonstimulated cells is shown. Data represent the mean value (s.e.m. as error bars) of at least three independent experiments. Statistically significant differences are shown.
C. Cell culture and reagents. RAW 264.7 macrophages were purchased from American Type Culture Collection and maintained in Dulbecco's modified medium (Invitrogen Life Technologies, Carlsbad, Calif.) containing 10% FBS (HyClone, South Logan, Utah) at 37° C. in a 5% CO2 atmosphere. […]
E. RNA analysis. RNA was purified using the RNeasy kit (Qiagen Sciences, Maryland, USA) or mirVana™ miRNA Isolation Kit (Ambion) if miRs were to be analyzed. […] Quantitative RT-PCR analyses for miR-125b, miR-146aa, miR155 and sno202, used as normalizing control, were performed using TaqMan miRNA assays with reagents, primers, and probes obtained from Ambion. […] Real-time quantitative polymerase chain reaction was performed using the iCycler (Bio-Rad Laboratories Inc., Hercules, Calif.), as described previously (Romics et al., supra). […] Relative expression was calculated using the comparative threshold cycle (Ct) method. […]

| Compound | miR155 levels after ethanol and/or LPS stimulation |
| --- | --- |
| Cc1ccc(S(=O)(=O)/C=C/C#N)cc1 [Bay 11-7082] | decrease |
| CC(C)C[C@@H](C=O)NC(=O)[C@H](CC(C)C)NC(=O)[C@H](CC(C)C)NC(=O)OCc1ccccc1 [MG-132] (Cbz-Leu-Leu-Leu-aldehyde) | decrease; also recorded: prevented miR155 increase |
